Measurements: US3950346A, “Novel process for producing 2-ketoethylbenzomorphan derivatives and salts thereof” (Sumitomo Chemical Company, Limited, priority 1972, dated 1976)
Like-named read-outs stand apart in the source and are kept apart here.

Legend:
[1] = Physical dependency test: abstinence syndrome (body weight decrease on the day after drug withdrawal following 4 weeks of administration); assay type: in vivo, rats (male, Wistar strain); parameters: key to Abstinence syndrome: +++: severe decrease (about 5% decrease); ++: moderate decrease; +: mild decrease; -: no decrease; settings: for Abstinence syndrome: 20 mg/kg/day, subcutaneously twice a day for 4 weeks, body weight decrease on next day after withdrawal, male Wistar rats; for addiction in long term animal tests / physical dependency: result in words; for physical dependency: orally or subcutaneously to rats everyday for 4 weeks
Description: Known 6,7-benzomorphan derivatives such as 2'-hydroxy-2,5,9-trimethyl-6,7-benzomorphan [cf. […] On account of this addiction liability, these analgesics are severely restricted in a therapeutic use.
Note: Groups of male rats of Wistar strain (body weight, 150 g at the beginning of the test), each group consisting of 20 male rats, were subcutaneously given the test compound twice a day for 4 consecutive weeks. On the next day after drug withdrawal, the body weight was measured. The symbols have the following meanings: +++, severe decrease (about 5% decrease); ++, moderate decrease; +, mild decrease; -, no decrease.

[2] = known, cf. U.S. Pat. No. 3,138,603; result in words; cited from earlier work
[3] = known, cf. U.S. Pat. No. 3,138,603; result in words; cited from earlier work; remark: listed apart in the source
[4] = Subcutaneous writhing test (antagonism of the syndrome produced by intraperitoneal 0.6% aqueous acetic acid); assay type: in vivo; settings: mice, 20 minutes before acetic acid, Litchfield-Wilcoxon's method
Description: […]. Note: The test was based on the specific antagonism of the test compound to the typical syndrome produced by intraperitoneal injection of 0.6% aqueous acetic acid. The syndrome was characterized by intermittent contractions of the abdomen, twisting and turning of the trunk and extension of the hind legs. A group of 5 mice was used for each dose level. The test compound was administered subcutaneously 20 minutes before the injection of acetic acid. […] The ED50 value was calculated according to the Litchfield-Wilcoxon's method.

[5] = Mus musculus, sc, read-out: ED50

Compound | Abstinence syndrome [1] | analgesic activity [2] | addiction liability [3] | addiction in long term animal tests [1] | physical dependency [1] | ED50 [4] [mg/kg] | ED50 [4, 5] [mg/kg]
CC1C2Cc3ccc(O)cc3C1(C)CCN2C (stereo not drawn) [2'-hydroxy-2,5,9-trimethyl-6,7-benzomorphan] | ++ | potent analgesic activity | show an addiction liability |  |  |  | 
2'-Hydroxy-2-(β-ethylcarbonylethyl)-5,9-dimethyl-6,7-benzomorphan | - |  |  | do not show any addiction | did not produce any physical dependency | 7.0 | 
CC(C)=CCN1CCC2(C)c3cc(O)ccc3CC1C2C (stereo not drawn) [Pentazocine, 2'-hydroxy-2-(3"-methyl-2"-butenyl)-5,9-dimethyl-6,7-benzomorphan, reference compound] |  |  |  |  |  |  | 17.5
CCOC(=O)CCN1CCC2(C)c3cc(O)ccc3CC1C2C (stereo not drawn) [2'-Hydroxy-2-(β-ethoxycarbonylethyl)-5,9-dimethyl-6,7-benzomorphan] | - |  |  | do not show any addiction | did not produce any physical dependency |  | 16.1
